How the values were obtained:
[1] = biological target: GDP-bound HRAS wild-type protein (Homo sapiens, UniProt P01112); test: Binding to HRAS by surface plasmon resonance (SPR), Single Cycle Kinetics; settings: SPR, GDP-bound HRAS wild-type protein vs GDP-bound KRAS wild-type protein
[2] = biological target: GDP-bound NRAS wild-type protein (Homo sapiens, UniProt P01111); test: Binding to NRAS by surface plasmon resonance (SPR), Single Cycle Kinetics; settings: SPR, GDP-bound NRAS wild-type protein vs GDP-bound KRAS wild-type protein
Chain of GDP-bound NRAS wild-type protein (P01111 whole entry): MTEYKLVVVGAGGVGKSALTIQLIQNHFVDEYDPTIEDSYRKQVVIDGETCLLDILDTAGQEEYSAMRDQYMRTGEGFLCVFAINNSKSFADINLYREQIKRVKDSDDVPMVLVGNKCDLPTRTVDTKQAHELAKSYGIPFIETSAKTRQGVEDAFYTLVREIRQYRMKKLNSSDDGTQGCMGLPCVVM

Chain of GDP-bound HRAS wild-type protein (P01112 whole entry): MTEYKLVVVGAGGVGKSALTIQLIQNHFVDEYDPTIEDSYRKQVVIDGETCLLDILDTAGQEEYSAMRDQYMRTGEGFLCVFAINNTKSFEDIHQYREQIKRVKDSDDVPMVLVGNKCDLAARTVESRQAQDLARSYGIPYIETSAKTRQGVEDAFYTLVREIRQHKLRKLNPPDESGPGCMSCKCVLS

Row | SMILES | HRAS/KRAS (ratio of KD value for HRAS to KD value for KRAS) [1] | NRAS/KRAS (ratio of KD value for NRAS to KD value for KRAS) [2]
1 | CCO[C@@H]1C[C@H]2C(=O)NC3(CCC3)C(=O)N(C)[C@@H](C3CCCC3)C(=O)N(C)[C@H](C(=O)N3CCOCC3)CC(=O)N(C)[C@@H](CC(C)C)C(=O)N[C@@H]([C@@H](C)CC)C(=O)N(C)CC(=O)N(C)[C@H]3CCCCCN(C3=O)[C@@H](Cc3ccc(F)cc3)C(=O)N(C)CC(=O)N[C@@H](CCc3ccc(C(F)(F)F)c(Cl)c3)C(=O)N2C1 [PP0968] | B (a compound having 3 or more and less than 10 is denoted as B) | B (a compound having 3 or more and less than 10 is denoted as B)
2 | CC[C@H](C)[C@@H]1NC(=O)[C@H](CC(C)C)N(C)C(=O)C[C@@H](C(=O)N2CCOCC2)N(C)C(=O)[C@H](C2CCCC2)N(C)C(=O)C2(CCC2)NC(=O)[C@@H]2CC(F)(F)CN2C(=O)[C@H](CCc2ccc(C(F)(F)F)c(Cl)c2)NC(=O)CN(C)C(=O)[C@H](Cc2ccc(F)cc2)N2CCCCC[C@@H](C2=O)N(C)C(=O)CN(C)C1=O [PP0969] | B (a compound having 3 or more and less than 10 is denoted as B) | B (a compound having 3 or more and less than 10 is denoted as B)
3 | CC[C@H](C)[C@@H]1NC(=O)[C@H](CC(C)C)N(C)C(=O)C[C@@H](C(=O)N(C)C)N(C)C(=O)[C@H](C2CCCC2)N(C)C(=O)C2(CCCC2)NC(=O)[C@@H]2CCCN2C(=O)[C@H](CCc2ccc(C(F)(F)F)c(Cl)c2)NC(=O)CN(C)C(=O)[C@H](Cc2ccc(F)cc2)N2CCCCC[C@@H](C2=O)N(C)C(=O)CN(C)C1=O [PP0971] | B (a compound having 3 or more and less than 10 is denoted as B) | B (a compound having 3 or more and less than 10 is denoted as B)
4 | CCO[C@@H]1C[C@H]2C(=O)NC3(CCC3)C(=O)N(C)[C@@H](C3CCCC3)C(=O)N(C)[C@H](C(=O)N(C)C)CC(=O)N(C)[C@@H](CC(C)C)C(=O)N[C@@H]([C@@H](C)CC)C(=O)N(C)CC(=O)N(C)[C@H]3CCCCCN(C3=O)[C@@H](Cc3ccc(F)cc3)C(=O)N(C)CC(=O)N[C@@H](CCc3ccc(C(F)(F)F)c(Cl)c3)C(=O)N2C1 [PP0972] | B (a compound having 3 or more and less than 10 is denoted as B) | B (a compound having 3 or more and less than 10 is denoted as B)
5 | CC[C@H](C)[C@@H]1NC(=O)[C@H](CC(C)C)N(C)C(=O)C[C@@H](C(=O)N2CCOCC2)N(C)C(=O)[C@H](C2CCCC2)N(C)C(=O)C2(CCC2)NC(=O)[C@@H]2C[C@@H](OCC3CC3)CN2C(=O)[C@H](CCc2cc(F)c(C(F)(F)F)c(F)c2)NC(=O)CN(C)C(=O)[C@H](Cc2ccc(C(F)(F)F)cc2)N2CCCC[C@@H](C2=O)N(C)C(=O)CN(C)C1=O [PP1000] | B (a compound having 3 or more and less than 10 is denoted as B) | B (a compound having 3 or more and less than 10 is denoted as B)
6 | CC[C@H](C)[C@@H]1NC(=O)[C@H](CC(C)C)N(C)C(=O)C[C@@H](C(=O)N2CCOCC2)N(C)C(=O)[C@H](C2CCCC2)N(C)C(=O)C2(CCC2)NC(=O)[C@@H]2C[C@@H](OCC(F)F)CN2C(=O)[C@H](CCc2cc(F)c(C(F)(F)F)c(F)c2)NC(=O)CN(C)C(=O)[C@H](Cc2ccc(C(F)(F)F)cc2)N2CCCCC[C@@H](C2=O)N(C)C(=O)CN(C)C1=O [PP1006] | B (a compound having 3 or more and less than 10 is denoted as B) | B (a compound having 3 or more and less than 10 is denoted as B)
7 | CC[C@H](C)[C@@H]1NC(=O)[C@H](CC(C)C)N(C)C(=O)C[C@@H](C(=O)N2CCOCC2)N(C)C(=O)[C@H](C2CCCC2)N(C)C(=O)C2(CCC2)NC(=O)[C@@H]2[C@@H](OCCC(F)(F)F)CCN2C(=O)[C@H](CCc2cc(F)c(C(F)(F)F)c(F)c2)NC(=O)CN(C)C(=O)[C@H](Cc2ccc(C(F)(F)F)cc2)N2CCCCC[C@@H](C2=O)N(C)C(=O)CN(C)C1=O [PP1008] | B (a compound having 3 or more and less than 10 is denoted as B) | A (a compound having 10 or more and less than 20 is denoted as A)
8 | CCCCO[C@H]1CCN2C(=O)[C@H](CCc3cc(F)c(C(F)(F)F)c(F)c3)NC(=O)CN(C)C(=O)[C@H](Cc3ccc(C(F)(F)F)cc3)N3CCCCC[C@@H](C3=O)N(C)C(=O)CN(C)C(=O)[C@H]([C@@H](C)CC)NC(=O)[C@H](CC(C)C)N(C)C(=O)C[C@@H](C(=O)N3CCOCC3)N(C)C(=O)[C@H](C3CCCC3)N(C)C(=O)C3(CCC3)NC(=O)[C@H]12 [PP1009] | B (a compound having 3 or more and less than 10 is denoted as B) | B (a compound having 3 or more and less than 10 is denoted as B)
9 | CC[C@H](C)[C@@H]1NC(=O)[C@H](CC(C)C)N(C)C(=O)C[C@@H](C(=O)N2CCOCC2)N(C)C(=O)[C@H](C2CCCC2)N(C)C(=O)C2(CCC2)NC(=O)[C@@H]2[C@@H](OCC3CC3)CCN2C(=O)[C@H](CCc2cc(F)c(C(F)(F)F)c(F)c2)NC(=O)CN(C)C(=O)[C@H](Cc2ccc(C(F)(F)F)cc2)N2CCCCC[C@@H](C2=O)N(C)C(=O)CN(C)C1=O [PP1010] | B (a compound having 3 or more and less than 10 is denoted as B) | B (a compound having 3 or more and less than 10 is denoted as B)
10 | CCCCO[C@@H]1C[C@H]2C(=O)NC3(CCC3)C(=O)N(C)[C@@H](C3CCCC3)C(=O)N(C)[C@H](C(=O)N3CCOCC3)CC(=O)N(C)[C@@H](CC(C)C)C(=O)N[C@@H]([C@@H](C)CC)C(=O)N(C)CC(=O)N(C)[C@H]3CCCCN(C3=O)[C@@H](Cc3ccc(C(F)(F)F)cc3)C(=O)N(C)CC(=O)N[C@@H](CCc3cc(F)c(C(F)(F)F)c(F)c3)C(=O)N2C1 [PP1013] | C (A compound having a KD ratio of 0.1 or more and less than 3 is denoted as C) | C (A compound having a KD ratio of 0.1 or more and less than 3 is denoted as C)
11 | CC[C@H](C)[C@@H]1NC(=O)[C@H](CC(C)C)N(C)C(=O)C[C@@H](C(=O)N2CCOCC2)N(C)C(=O)[C@H](C2CCCC2)N(C)C(=O)C2(CCC2)NC(=O)[C@@H]2C[C@@H](OCC3CC3)CN2C(=O)[C@H](CCc2cc(F)c(C(F)(F)F)c(F)c2)NC(=O)CN(C)C(=O)[C@H](Cc2ccc(C(F)(F)F)cc2)N2CCCC[C@@H](C2=O)N(C)C(=O)CN(C)C1=O [PP1014] | C (A compound having a KD ratio of 0.1 or more and less than 3 is denoted as C) | C (A compound having a KD ratio of 0.1 or more and less than 3 is denoted as C)
12 | CCO[C@@H]1C[C@H]2C(=O)NC3(CCC3)C(=O)N(C)[C@@H](C3CCCC3)C(=O)N(C)[C@H](C(=O)N(C)C)CC(=O)N(C)[C@@H](CC(C)C)C(=O)N[C@@H]([C@@H](C)CC)C(=O)N(C)CC(=O)N(C)[C@H]3C[C@@H](C)CCN(C3=O)[C@@H](Cc3ccc(C(F)(F)F)cc3)C(=O)N(C)CC(=O)N[C@@H](CCc3cc(F)c(C(F)(F)F)c(F)c3)C(=O)N2C1 [PP1018] | B (a compound having 3 or more and less than 10 is denoted as B) | C (A compound having a KD ratio of 0.1 or more and less than 3 is denoted as C)
13 | CCO[C@@H]1C[C@H]2C(=O)NC3(CCC3)C(=O)N(C)[C@@H](C3CCCC3)C(=O)N(C)[C@H](C(=O)N3CCOCC3)CC(=O)N(C)[C@@H](CC(C)C)C(=O)N[C@@H]([C@@H](C)CC)C(=O)N3CC[C@H]3C(=O)N(C)[C@H]3C[C@@H](C)CCN(C3=O)[C@@H](Cc3ccc(C(F)(F)F)cc3)C(=O)N(C)CC(=O)N[C@@H](CCc3cc(F)c(C(F)(F)F)c(F)c3)C(=O)N2C1 [PP1026] | B (a compound having 3 or more and less than 10 is denoted as B) | B (a compound having 3 or more and less than 10 is denoted as B)
14 | CCO[C@@H]1C[C@H]2C(=O)NC3(CCC3)C(=O)N(C)[C@@H](C3CCCC3)C(=O)N(C)[C@H](C(=O)N3CCOCC3)CC(=O)N(CC)[C@@H](CC(C)C)C(=O)N[C@@H]([C@@H](C)CC)C(=O)N(C)CC(=O)N(C)[C@H]3C[C@@H](C)CCN(C3=O)[C@@H](Cc3ccc(C(F)(F)F)cc3)C(=O)N(C)CC(=O)N[C@@H](CCc3cc(F)c(C(F)(F)F)c(F)c3)C(=O)N2C1 [PP1030] | B (a compound having 3 or more and less than 10 is denoted as B) | B (a compound having 3 or more and less than 10 is denoted as B)
15 | CCO[C@@H]1C[C@H]2C(=O)NC3(CCC3)C(=O)N(C)[C@@H](C3CCCC3)C(=O)N(C)[C@H](C(=O)N(C)C)CC(=O)N(C)[C@@H](CC(C)C)C(=O)N[C@@H]([C@@H](C)CC)C(=O)N(C)CC(=O)N(C)[C@H]3CC(C)=CCN(C3=O)[C@@H](Cc3ccc(C(F)(F)F)cc3)C(=O)N(C)CC(=O)N[C@@H](CCc3cc(F)c(C(F)(F)F)c(F)c3)C(=O)N2C1 [PP1032] | C (A compound having a KD ratio of 0.1 or more and less than 3 is denoted as C) | C (A compound having a KD ratio of 0.1 or more and less than 3 is denoted as C)
16 | CCO[C@@H]1C[C@H]2C(=O)NC3(CCC3)C(=O)N(C)[C@@H](C3CCCC3)C(=O)N(C)[C@H](C(=O)N3CCOCC3)CC(=O)N(C)[C@@H](CC(C)C)C(=O)N[C@@H]([C@@H](C)CC)C(=O)N(C)CC(=O)N(C)[C@H]3CC(C)=CCN(C3=O)[C@@H](Cc3ccc(C(F)(F)F)cc3)C(=O)N(C)CC(=O)N[C@@H](CCc3cc(F)c(C(F)(F)F)c(F)c3)C(=O)N2C1 [PP1039] | C (A compound having a KD ratio of 0.1 or more and less than 3 is denoted as C) | C (A compound having a KD ratio of 0.1 or more and less than 3 is denoted as C)
